Measurements published in patent US9447038B2 (SANOFI, priority 2012, dated 2016).
Where a name gives a salt, the structure may show the parent alone.

Each compound was assayed against human CXCR3-A receptor (Homo sapiens (Human), UniProt P49682) (assay: 125I-CXCL10 competition radioligand binding assay). Conditions: not given.
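Also: One-hour incubation of membranes with tracer, bound radioligand separated by glass fibre filtration, IC50 derived from four-parameter nonlinear fit of competition curves.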

human CXCR3-A receptor, sequence (P49682 whole entry): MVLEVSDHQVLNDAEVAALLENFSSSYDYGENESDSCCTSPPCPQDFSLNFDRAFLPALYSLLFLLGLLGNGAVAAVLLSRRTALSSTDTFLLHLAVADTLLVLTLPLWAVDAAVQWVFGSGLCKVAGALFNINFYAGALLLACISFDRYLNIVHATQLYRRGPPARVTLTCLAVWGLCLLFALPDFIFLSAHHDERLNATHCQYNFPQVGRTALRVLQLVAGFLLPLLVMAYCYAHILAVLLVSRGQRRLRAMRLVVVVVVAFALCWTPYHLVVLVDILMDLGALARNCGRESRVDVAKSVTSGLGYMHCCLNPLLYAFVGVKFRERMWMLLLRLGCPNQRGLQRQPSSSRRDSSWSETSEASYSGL

`CCCCN(Cc1ccc(OCCN2C(=O)CCC2=O)c(OC)c1)C(CC(=O)O)c1ccc(Cl)cc1` (stereo not drawn) [Example 38, 3-(Butyl-{4-[2-(2,5-dioxo-pyrrolidin-1-yl)-ethoxy]-3-methoxy-benzyl}-amino)-3-(4-chloro-phenyl)-propionic acid] gave an IC50 of 45 nM.

Same assay, conditions: displacement of 125I-CXCL10 from membranes of CHO cells expressing human recombinant CXCR3-A

Going from `Cc1cc(CN(CCC(F)(F)F)C(CC(=O)O)c2ccc(Cl)cc2)ccc1OCCn1c(=O)ccn(C)c1=O` (stereo not drawn) [Example 129, 3-(4-Chloro-phenyl)-3-[{3-methyl-4-[2-(3-methyl-2,6-dioxo-3,6-dihydro-2H-pyrimidin-1-yl)-ethoxy]-benzyl}-(3,3,3-trifluoro-propyl)-amino]-propionic acid] to `COc1cc(CN(CCC(F)(F)F)C(CC(=O)O)c2ccc(Cl)cc2)ccc1OCCn1c(=O)ccn(C)c1=O` (stereo not drawn) [Example 130, 3-(4-Chloro-phenyl)-3-[{3-methoxy-4-[2-(3-methyl-2,6-dioxo-3,6-dihydro-2H-pyrimidin-1-yl)-ethoxy]-benzyl}-(3,3,3-trifluoro-propyl)-amino]-propionic acid], the IC50 falls from 2150 nM to 1250 nM (1.7-fold).

`Cc1cc(CN(CC2CC2)C(CC(=O)O)c2ccc3c(c2)CCO3)ccc1OCCn1c(=O)ccn(C)c1=O` (stereo not drawn) [Example 131, 3-(Cyclopropylmethyl-{3-methyl-4-[2-(3-methyl-2,6-dioxo-3,6-dihydro-2H-pyrimidin-1-yl)-ethoxy]-benzyl}-amino)-3-(2,3-dihydro-benzofuran-5-yl)-propionic acid] and `CCN(Cc1ccc(OCCn2c(=O)ccn(C)c2=O)c(C)c1)C(CC(=O)O)c1ccc2c(c1)CCO2` (stereo not drawn) [Example 154, 3-(2,3-Dihydro-benzofuran-5-yl)-3-(ethyl-{3-methyl-4-[2-(3-methyl-2,6-dioxo-3,6-dihydro-2H-pyrimidin-1-yl)-ethoxy]-benzyl}-amino)-propionic acid] are within 1.5-fold of each other in IC50: 42 nM for the first, 58 nM for the second.

Compared with `CCCCN(Cc1ccc(OCCN2C(=O)CCC2=O)c(OC)c1)C(CC(=O)O)c1ccc(Cl)cc1Cl` (stereo not drawn) [Example 150, 3-(Butyl-{4-[2-(2,5-dioxo-pyrrolidin-1-yl)-ethoxy]-3-methoxy-benzyl}-amino)-3-(2,4-dichloro-phenyl)-propionic acid], `CCCCN(Cc1ccc(OCCN2C(=O)CCC2=O)c(OC)c1)C(CC(=O)O)c1ccc(Cl)c(Cl)c1` (stereo not drawn) [Example 48, 3-(Butyl-{4-[2-(2,5-dioxo-pyrrolidin-1-yl)-ethoxy]-3-methoxy-benzyl}-amino)-3-(3,4-dichloro-phenyl)-propionic acid] is 2.3-fold lower in IC50: 140 nM for the first, 61 nM for the second. The second is the more potent here.

Going from `O=C(O)CC(c1ccc(Cl)cc1)N(Cc1ccc(OCCN2C(=O)CCC2=O)c(Cl)c1)CC1CC1` (stereo not drawn) [Example 102, 3-({3-Chloro-4-[2-(2,5-dioxo-pyrrolidin-1-yl)-ethoxy]-benzyl}-cyclopropylmethyl-amino)-3-(4-chloro-phenyl)-propionic acid; hydrochloride] to `O=C(O)CC(c1ccc(Cl)cc1)N(Cc1ccc(OCCN2C(=O)CCC2=O)c(F)c1)CC1CC1` (stereo not drawn) [Example 51, 3-(4-Chloro-phenyl)-3-(cyclopropylmethyl-{4-[2-(2,5-dioxo-pyrrolidin-1-yl)-ethoxy]-3-fluoro-benzyl}-amino)-propionic acid], the IC50 rises from 83 nM to 133 nM (1.6-fold). The first is the more potent here.

Compared with `CCCCN(Cc1ccc(OCCN2C(=O)CCC2=O)c(OC)c1)C1c2ccc(Cl)cc2CC1C(=O)O` (stereo not drawn) [Example 168, 1-(Butyl-{4-[2-(2,5-dioxo-pyrrolidin-1-yl)-ethoxy]-3-methoxy-benzyl}-amino)-5-chloro-indan-2-carboxylic acid], `COc1cc(CN(CC2CCCC2)C2c3ccc(Cl)cc3CC2C(=O)O)ccc1OCCN1C(=O)CCC1=O` (stereo not drawn) [Example 171, 5-Chloro-1-(cyclopentylmethyl-{4-[2-(2,5-dioxo-pyrrolidin-1-yl)-ethoxy]-3-methoxy-benzyl}-amino)-indan-2-carboxylic acid] is 1.6-fold higher in IC50: 237 nM for the first, 389 nM for the second. The first is the more potent here.

Compared with `COc1cc(CN(CC2CCCCC2)C(CC(=O)O)c2ccc(Cl)c(F)c2)ccc1OCCN1C(=O)CCC1=O` (stereo not drawn) [Example 44, 3-(4-Chloro-3-fluoro-phenyl)-3-(cyclohexylmethyl-{4-[2-(2,5-dioxo-pyrrolidin-1-yl)-ethoxy]-3-methoxy-benzyl}-amino)-propionic acid], `COc1cc(CN(CC2CCCCC2)C(CC(=O)O)c2ccc(Cl)c(Cl)c2)ccc1OCCN1C(=O)CCC1=O` (stereo not drawn) [Example 50, 3-(Cyclohexylmethyl-{4-[2-(2,5-dioxo-pyrrolidin-1-yl)-ethoxy]-3-methoxy-benzyl}-amino)-3-(3,4-dichloro-phenyl)-propionic acid] is 2.3-fold higher in IC50: 43 nM for the first, 98 nM for the second. The first is the more potent here.

First: COc1cc(CN(C2CCC2)C(CC(=O)O)c2ccc(Cl)cc2)ccc1CCCN1C(=O)CCC1=O (stereo not drawn) [Example 138, 3-(4-Chloro-phenyl)-3-(cyclobutyl-{4-[3-(2,5-dioxo-pyrrolidin-1-yl)-propyl]-3-methoxy-benzyl}-amino)-propionic acid]
Second: O=C(O)C[C@H](c1ccc(Cl)cc1)N(Cc1ccc(OCCN2C(=O)CCC2=O)c(F)c1)CC1CCC1 [Example 55, (R)-3-(4-Chloro-phenyl)-3-(cyclobutylmethyl-{4-[2-(2,5-dioxo-pyrrolidin-1-yl)-ethoxy]-3-fluoro-benzyl}-amino)-propionic acid]
The IC50 of the first is 1.5-fold lower: 190 nM for the first, 294 nM for the second. The first is the more potent here.

Compared with `CC(C)CN(Cc1ccc(OCCN2C(=O)CCC2=O)c(F)c1)C(CC(=O)O)c1ccc(Cl)cc1` (stereo not drawn) [Example 53, 3-(4-Chloro-phenyl)-3-({4-[2-(2,5-dioxo-pyrrolidin-1-yl)-ethoxy]-3-fluoro-benzyl}-isobutyl-amino)-propionic acid], `CC(C)CN(Cc1ccc(OCCN2C(=O)CCC2=O)c(F)c1)[C@H](CC(=O)O)c1ccc(Cl)c(F)c1` [Example 22, (R)-3-(4-Chloro-3-fluoro-phenyl)-3-({4-[2-(2,5-dioxo-pyrrolidin-1-yl)-ethoxy]-3-fluoro-benzyl}-isobutyl-amino)-propionic acid; hydrochloride] is 4.2-fold higher in IC50: 125 nM for the first, 531 nM for the second.

`CCCCN(Cc1ccc(OCCN2C(=O)CCC2=O)c(C)c1)C(CC(=O)O)c1ccc(Cl)c(F)c1` (stereo not drawn) [Example 76, 3-(Butyl-{4-[2-(2,5-dioxo-pyrrolidin-1-yl)-ethoxy]-3-methyl-benzyl}-amino)-3-(4-chloro-3-fluoro-phenyl)-propionic acid] and `CC(C)CN(Cc1ccc(OCCN2C(=O)CCC2=O)c(F)c1)[C@@H](CC(=O)O)c1ccc(Cl)c(F)c1` [Example 21, (S)-3-(4-Chloro-3-fluoro-phenyl)-3-({4-[2-(2,5-dioxo-pyrrolidin-1-yl)-ethoxy]-3-fluoro-benzyl}-isobutyl-amino)-propionic acid; hydrochloride] are within 1.5-fold of each other in IC50: 54 nM for the first, 66 nM for the second.

First: Cc1cc(CN(CC2CCCCC2)C(CC(=O)O)c2ccc3c(c2)CCO3)ccc1CCCN1C(=O)CCC1=O (stereo not drawn) [Example 143, 3-(Cyclohexylmethyl-{4-[3-(2,5-dioxo-pyrrolidin-1-yl)-propyl]-3-methyl-benzyl}-amino)-3-(2,3-dihydro-benzofuran-5-yl)-propionic acid]
Second: Cc1cc(CN(CC2CCCC2)C(CC(=O)O)c2ccc3c(c2)CCO3)ccc1OCCN1C(=O)CCC1=O (stereo not drawn) [Example 147, 3-(Cyclopentylmethyl-{4-[2-(2,5-dioxo-pyrrolidin-1-yl)-ethoxy]-3-methyl-benzyl}-amino)-3-(2,3-dihydro-benzofuran-5-yl)-propionic acid]
The IC50 of the first is 4.6-fold higher: 211 nM for the first, 46 nM for the second.

Compared with `CCc1cc(CN(CC2CC2)C(CC(=O)O)c2ccc(Cl)c(Cl)c2)ccc1OCCN1C(=O)CCC1=O` (stereo not drawn) [Example 96, 3-(Cyclopropylmethyl-{4-[2-(2,5-dioxo-pyrrolidin-1-yl)-ethoxy]-3-ethyl-benzyl}-amino)-3-(3,4-dichloro-phenyl)-propionic acid], `CCc1cc(CN(CC2CC2)C(CC(=O)O)c2ccc(Cl)c(F)c2)ccc1OCCN1C(=O)CCC1=O` (stereo not drawn) [Example 90, 3-(4-Chloro-3-fluoro-phenyl)-3-(cyclopropylmethyl-{4-[2-(2,5-dioxo-pyrrolidin-1-yl)-ethoxy]-3-ethyl-benzyl}-amino)-propionic acid] is 1.6-fold lower in IC50: 78 nM for the first, 50 nM for the second.

First: COc1cc(CN(CC2CCCC2)C(CC(=O)O)c2ccc(Cl)c(F)c2)ccc1SCCN1C(=O)CCC1=O (stereo not drawn) [Example 190, 3-(4-Chloro-3-fluoro-phenyl)-3-(cyclopentylmethyl-{4-[2-(2,5-dioxo-pyrrolidin-1-yl)-ethylsulfanyl]-3-methoxy-benzyl}-amino)-propionic acid]
Second: O=C(O)CC(c1ccc(Cl)c(F)c1)N(Cc1ccc(OCCN2C(=O)CCC2=O)c(F)c1)CC1CCCC1 (stereo not drawn) [Example 60, 3-(4-Chloro-3-fluoro-phenyl)-3-(cyclopentylmethyl-{4-[2-(2,5-dioxo-pyrrolidin-1-yl)-ethoxy]-3-fluoro-benzyl}-amino)-propionic acid]
The IC50 of the first is 3.9-fold lower: 62 nM for the first, 243 nM for the second.

Going from `CCCCN(Cc1ccc(OCCN2C(=O)CCC2=O)c(CC)c1)C(CC(=O)O)c1ccc(Cl)cc1` (stereo not drawn) [Example 87, 3-(Butyl-{4-[2-(2,5-dioxo-pyrrolidin-1-yl)-ethoxy]-3-ethyl-benzyl}-amino)-3-(4-chloro-phenyl)-propionic acid] to `CC(C)CN(Cc1ccc(OCCN2C(=O)CCC2=O)c(F)c1)C(CC(=O)O)c1ccc(Cl)c(Cl)c1` (stereo not drawn) [Example 63, 3-(3,4-Dichloro-phenyl)-3-({4-[2-(2,5-dioxo-pyrrolidin-1-yl)-ethoxy]-3-fluoro-benzyl}-isobutyl-amino)-propionic acid], the IC50 rises from 31 nM to 303 nM (9.8-fold).

First: COc1cc(CN(CC2CCCC2)C(CC(=O)O)c2ccc(Cl)cc2Cl)ccc1OCCN1C(=O)CCC1=O (stereo not drawn) [Example 3, 3-(Cyclopentylmethyl-{4-[2-(2,5-dioxo-pyrrolidin-1-yl)-ethoxy]-3-methoxy-benzyl}-amino)-3-(2,4-dichloro-phenyl)-propionic acid]
Second: COc1cc(CN(CC2CC2)C(c2ccc(Cl)cc2)C(C)C(=O)O)ccc1OCCN1C(=O)CCC1=O (stereo not drawn) [Example 187, 3-(4-Chloro-phenyl)-3-(cyclopropylmethyl-{4-[2-(2,5-dioxo-pyrrolidin-1-yl)-ethoxy]-3-methoxy-benzyl}-amino)-2-methyl-propionic acid]
The IC50 of the first is 1.7-fold higher: 120 nM for the first, 71 nM for the second. The second is the more potent here.

For `CCCN(Cc1ccc(OCCn2c(=O)ccn(C)c2=O)c(OC)c1)C(CC(=O)O)c1ccc(Cl)cc1Cl` (stereo not drawn) [Example 159, 3-(2,4-Dichloro-phenyl)-3-({3-methoxy-4-[2-(3-methyl-2,6-dioxo-3,6-dihydro-2H-pyrimidin-1-yl)-ethoxy]-benzyl}-propyl-amino)-propionic acid], the IC50 was 354 nM.
